PMC2642990, “The Glycogen-Binding Domain on the AMPK β Subunit Allows the Kinase to Act as a Glycogen Sensor” (Cell Metabolism, 2009)

Tests used:
[1] = tested on: dephosphorylation of purified rat liver AMPK by protein phosphatase-2Cα (PPM1A); test: dephosphorylation of rat liver AMPK by PP2Cα, western blotting of pThr-172; assay type: biochemical; details: 1 mM oligosaccharide
Protocol: (§1) Figure 7 Effect of Oligosaccharide Number 5, See Figure 6, on Dephosphorylation of AMPK by PP2Cα and on Phosphorylation by CaMKKβ and LKB1 (A) Effect of oligosaccharide on dephosphorylation by PP2Cα. Rat liver AMPK was incubated with PP2Cα in the presence and absence of 1 mM oligosaccharide; at various times, levels of total α subunit and phosphorylation on Thr-172 were assessed by western blotting. (B) Quantification of results as in (A); means ± SEM of two experiments. (C) Effect of oligosaccharide on phosphorylation by CaMKKβ. Rat liver AMPK was dephosphorylated using PP1, okadaic acid was added to inhibit the phosphatase, and the protein was incubated with MgATP and CaMKKβ in the presence and absence of 1 mM oligosaccharide. At various times, levels of total α subunit and of phosphorylation on Thr-172 were assessed by western blotting. (D) Quantification of results as in (C); means ± SEM (n = 2). (E) Time course of effect of oligosaccharide on phosphorylation by LKB1, performed as in (C) but with LKB1 in place of CaMKKβ. (F) Effect of oligosaccharide on phosphorylation of a synthetic peptide substrate of LKB1 (mean ± SD; n = 2). (G) Inhibition of AMPK by bovine liver glycogen, a phosphorylase limit dextrin, and a mock-treated sample. IC50 values were determined as in Figure 2A and curves generated from the best-fit parameters. […]

[2] = tested on: phosphorylation of Thr-172 by CaMKKβ; test: phosphorylation of Thr-172 of rat liver AMPK by CaMKKβ; assay type: biochemical; details: 1 mM oligosaccharide
Protocol: as §1

LKB1 = target: T1, LKB1 (Homo sapiens, UniProt Q15831); test: phosphorylation of synthetic peptide substrate LKBtide by LKB1; assay type: biochemical; details: 1 mM oligosaccharide
T1 sequence (Q15831 1-433): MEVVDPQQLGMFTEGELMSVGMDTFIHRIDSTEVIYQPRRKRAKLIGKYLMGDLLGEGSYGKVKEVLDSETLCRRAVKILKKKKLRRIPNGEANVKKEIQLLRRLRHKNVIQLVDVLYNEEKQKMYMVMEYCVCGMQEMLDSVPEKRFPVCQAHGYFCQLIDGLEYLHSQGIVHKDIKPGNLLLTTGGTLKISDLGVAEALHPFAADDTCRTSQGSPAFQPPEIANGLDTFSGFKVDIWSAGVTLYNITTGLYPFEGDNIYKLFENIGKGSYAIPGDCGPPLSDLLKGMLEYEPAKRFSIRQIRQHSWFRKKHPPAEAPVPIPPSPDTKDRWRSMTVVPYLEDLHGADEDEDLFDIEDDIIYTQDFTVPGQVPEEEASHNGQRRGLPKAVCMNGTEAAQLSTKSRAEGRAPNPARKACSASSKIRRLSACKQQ
T1 sequence (Q7RTN6 1-431 partner): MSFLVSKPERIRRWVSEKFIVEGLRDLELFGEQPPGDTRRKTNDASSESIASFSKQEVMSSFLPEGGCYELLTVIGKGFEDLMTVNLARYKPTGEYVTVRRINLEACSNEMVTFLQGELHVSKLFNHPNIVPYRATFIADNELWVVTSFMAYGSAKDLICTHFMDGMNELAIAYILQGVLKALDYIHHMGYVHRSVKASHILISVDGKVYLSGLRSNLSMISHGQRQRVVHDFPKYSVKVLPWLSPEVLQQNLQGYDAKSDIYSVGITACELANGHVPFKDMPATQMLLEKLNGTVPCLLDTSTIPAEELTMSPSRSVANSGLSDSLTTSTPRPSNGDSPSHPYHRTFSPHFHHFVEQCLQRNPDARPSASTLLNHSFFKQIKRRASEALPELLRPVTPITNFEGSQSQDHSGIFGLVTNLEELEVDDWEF
T1 sequence (Q9Y376 1-341 partner): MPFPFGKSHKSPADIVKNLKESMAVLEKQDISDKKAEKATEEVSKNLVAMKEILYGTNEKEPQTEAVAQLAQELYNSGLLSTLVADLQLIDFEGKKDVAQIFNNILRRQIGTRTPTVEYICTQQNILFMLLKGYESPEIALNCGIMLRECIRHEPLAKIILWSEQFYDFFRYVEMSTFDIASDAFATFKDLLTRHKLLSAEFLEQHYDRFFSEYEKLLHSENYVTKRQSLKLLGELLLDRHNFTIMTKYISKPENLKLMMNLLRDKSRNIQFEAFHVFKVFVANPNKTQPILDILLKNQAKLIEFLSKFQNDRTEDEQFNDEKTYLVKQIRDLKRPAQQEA
Source text: (§2) The inhibitory effects observed to this point represent allosteric inhibition, i.e., direct effects on the activity of the AMPK kinase domain of carbohydrate binding at a different site, i.e., the GBD on the β subunit. It was important to establish whether carbohydrates might also affect phosphorylation and dephosphorylation by upstream kinases and phosphatases. […] To confirm that the latter was not an effect on LKB1, we tested the effect of the oligosaccharide on phosphorylation of a synthetic peptide substrate, i.e., LKBtide ([Lizcano et al., 2004]).
Figure 7 Effect of Oligosaccharide Number 5, See Figure 6, on Dephosphorylation of AMPK by PP2Cα and on Phosphorylation by CaMKKβ and LKB1 (A) Effect of oligosaccharide on dephosphorylation by PP2Cα. Rat liver AMPK was incubated with PP2Cα in the presence and absence of 1 mM oligosaccharide; at various times, levels of total α subunit and phosphorylation on Thr-172 were assessed by western blotting. (B) Quantification of results as in (A); means ± SEM of two experiments. (C) Effect of oligosaccharide on phosphorylation by CaMKKβ. […] At various times, levels of total α subunit and of phosphorylation on Thr-172 were assessed by western blotting. (D) Quantification of results as in (C); means ± SEM (n = 2). […] IC50 values were determined as in Figure 2A and curves generated from the best-fit parameters. […]

[3] = tested on: phosphorylation of Thr-172 by LKB1; test: phosphorylation of Thr-172 of rat liver AMPK by LKB1; assay type: biochemical; details: 1 mM oligosaccharide
Protocol: as §1

[4] = tested on: dephosphorylation of AMPK by protein phosphatase-1; test: dephosphorylation of AMPK by catalytic subunit of protein phosphatase-1; assay type: biochemical, rat; details: data not shown
Source text: as §2

inhibition of LKBtide phosphorylation (LKB1): no significant inhibition | effect on dephosphorylation by protein phosphatase-1 [4]: negative results
Compound: CO[C@H]1O[C@H](CO[C@H]2O[C@H](CO)[C@@H](O[C@H]3O[C@H](CO)[C@@H](O)[C@H](O)[C@H]3O)[C@H](O)[C@H]2O)[C@@H](O)[C@H](O)[C@H]1O [Oligosaccharide 5, Glcα1→4Glcα1→6Glcα-OMe]
effect on dephosphorylation by PP2Cα [1]: no significant effect | inhibition of phosphorylation of Thr-172 by CaMKKβ [2]: marked inhibition | extent of inhibition of phosphorylation of the rat liver αβγ complex by LKB1 ([3]; Figure 7E): essentially complete | inhibition of phosphorylation of Thr-172 by LKB1 ([3]; time course): marked inhibition
